Data taken from patent US12258425B2, “Peptide compositions and methods of use” (priority 2015, dated 2025).
Counter-ions that a name gives are not always drawn. Where a SMILES comes first, the peptide text is derived from it.

Assays:
[1] = pH-solubility titration (visual: precipitate, turbidity, viscosity, gel); assay type: physicochemical
Procedure: Compound 1 obtained as a trihydrochloride salt, as described in Example 1, and was screened for aqueous solubility at different pHs, by carrying out pH titrations according to the following protocol. In some cases Met-12 was run through an identical experimental procedure to determine its solubility pH profile under the same conditions.
Compound 1 (10 mg) was dissolved in water (270-900 ? L) in a 2 mL clear plastic centrifuge tube with vortexing to give a pH ˜2.4 solution. […] This solution was then diluted with the appropriate amount of cosolvent or other excipient (sugar, surfactant etc.) to produce a clear acidic solution of 10 mg of Compound 1 in […] of the test solution at room temperature ([…]). Small aliquots of a basic solution (usually sodium hydroxide 1.0 M or 0.1 M, but sometimes other bases when investigating buffers) were added using a microliter syringe. Between additions the solution was mixed by vortexing, and the solution was inspected visually for precipitates of various types, turbidity, as a likely sign of microprecipitates, and viscosity to detect gel formation. pH measurements were taken at all these observation points. Some experiments titrated from the endogenous low pH to pH 10, but later titrations were not carried much above pH 7, or sometimes even lower.

[2] = test system: photoreceptor cells in the detached portion of the retina; assay: Rat retinal detachment model, TUNEL count of apoptotic cells; assay type: in vivo, rats; details: for Cells positive for TUNEL in detached retina: Example 10, subretinal, three days
Procedure: Briefly, rodents were anesthetized with a 50:50 mix of ketamine (100 mg/mL) and xylazine (20 mg/mL), and pupils were dilated with topical phenylephrine (2.5%) and tropicamide (1%). A 20-gauge microvitreoretinal blade (Walcott Scientific, Marmora, NJ) was used to create a sclerotomy 2 mm posterior to the limbus, carefully avoiding lens damage.
Under direct visualization through an operating microscope, a subretinal injector (Glaser, 32-gauge tip; BD Ophthalmic Systems, Sarasota, FL) was introduced through the sclerotomy into the vitreous cavity and then through a peripheral retinotomy into the subretinal space. Sodium hyaluronate (10 mg/mL) was slowly injected to detach the neurosensory retina from the underlying retinal pigment epithelium.
In all experiments, approximately one-third to one-half of the superonasal neurosensory retina was detached. In all animals, detachments were created in the same location to allow for direct comparison of retinal cell counts. Detachments were created in the left eye, leaving the right eye as the control. […]
After three days rats were euthanized, retinas were excised, fixed, sectioned, and stained for TUNEL assays. Areas of detached retina were counted for number of apoptotic cells. Each experiment involved 4 fields from each of 4 sections obtained from 5 or 6 retinas for each dosing group.

[3] = test system: FasL-induced caspase 8 activation in 661W cells; assay: Blockade of FasL-induced caspase 8 activation in 661W cells; assay type: cell-based; details: for Concentration of maximal inhibition of FasL-induced caspase 8 activation / EC50: FasL 500 ng/mL, 48 hours; for EC50: trihydrochloride, unbuffered solution in DMSO, read-out: EC50, inhibition of FasL-induced caspase 8 activation
Description: Cell Culture. The 661W photoreceptor cell line was generously provided by Muayyad Al-Ubaidi (Department of Cell Biology, University of Oklahoma Health Sciences Center, Oklahoma City, OK). The 661W cell line is a photoreceptor line that has been immortalized by the expression of SV40-T antigen under control of the human interphotoreceptor retinol-binding protein (IRBP) promoter (Al-Ubaidi et al.,J Cell Biol., 119(6):1681-1687 (1992), herein incorporated by reference in its entirety). 661W cells express cone photoreceptor markers, including blue and green cone pigments, transducin, and cone arrestin (Tan et al., Invest Ophtholmol Vis Sci., (3):764-768 (2004), herein incorporated by reference in its entirety), and can undergo caspase-mediated cell death (Kanan et al., Invest Ophthalmol Vis Sci., 48(1):40-51 (2007), herein incorporated by reference in its entirety).
The 661W cell line was maintained in Dulbecco's modified Eagle's medium containing 10% fetal bovine serum, 300 mg/L glutamine, 32 mg/L putrescine, 40 μL/L β-mercaptoethanol, 40 μg/L hydrocortisone 21-hemisuccinate, and 40 μg/L progesterone. The media also contained penicillin (90 U/mL) and streptomycin (0.09 mg/mL). Cells were grown at 37° C. in a humidified atmosphere of 5% CO2 and 95% air.
Activity Assays. Caspase 3, caspase 8 and caspase 9 activities were measured with colorimetric tetrapeptide cleavage assay kits, per the manufacturer's instructions (BioVision, Mountain View, Calif). Total (661W/retinal) protein was extracted as per a previously published protocol (Zacks et al., IOVS, 44(3):1262-1267 (2003), herein incorporated by reference in its entirety). One hundred micrograms of total (661W/retinal) protein was incubated with caspase 3 (DEVD-pNA), caspase 8 (IETD-pNA) or caspase 9 substrates (LEHD-pNA) at 200 μM final concentration for 60 minutes. Absorbance was measured at 405 nm in a microplate reader (Spectra-MAX 190, Molecular Devices, Sunnyvale, Calif). As a negative control, (661W/retinal) protein was incubated with assay buffer without the tetrapeptide. A second negative control was used in which assay buffer alone was incubated with the tetrapeptide. As a positive control, purified caspase 3, caspase 8, or caspase 9 was incubated with the tetrapeptide alone.
661W cells were treated with a FasL. […] Activity of caspase 8 measured in 661W cell lysates increased with increasing concentration of FasL, peaking with the 500 ng/ml dose. 661W cells were treated with 500 ng/ml FasL and measured activity levels at various time points.
The assay system described above was used as an in vitro screening system to find potential inhibitors of the Fas-induced Caspase 8 activation pathway. […] This activity is very dependent on the formulation in which the Met-12 peptide is delivered. The final formulation for Met-12 was diluted 1000-fold for this assay, and to get to the top of the dose curve, which is normally 100 μM, one uses lesser dilutions.

[4] = 5 μg in 5 μL DMSO, trihydrochloride

CC[C@H](C)[C@H](NC(=O)[C@H](Cc1ccc(O)cc1)NC(=O)[C@H](CC(N)=O)NC(=O)[C@@H](NC(=O)[C@H](C)NC(=O)CNC(=O)[C@H](CC(C)C)NC(=O)[C@H](Cc1ccc(O)cc1)NC(=O)[C@@H](NC(=O)[C@H](Cc1cnc[nH]1)NC(=O)[C@@H](N)Cc1cnc[nH]1)[C@@H](C)CC)C(C)C)C(=O)N[C@@H](Cc1ccc(O)cc1)C(N)=O [Compound 1 triacetate, His-His-Ile-Tyr-Leu-Gly-Ala-Val-Asn-Tyr-Ile-Tyr-NHz] (H-HHIYLGAVNYIY-NH2)
Inherent pH of the salt ([1]; 2 mg/mL in water): 3.4-3.6 pH | Apoptotic cells in detached retina ([2]; Example 12, 1 μg in DMSO): 1.2%

CC[C@H](C)[C@H](NC(=O)[C@H](Cc1ccc(O)cc1)NC(=O)[C@H](CC(N)=O)NC(=O)[C@@H](NC(=O)[C@H](C)NC(=O)CNC(=O)[C@H](CC(C)C)NC(=O)[C@H](Cc1ccc(O)cc1)NC(=O)[C@@H](NC(=O)[C@H](Cc1cnc[nH]1)NC(=O)[C@@H](N)Cc1cnc[nH]1)[C@@H](C)CC)C(C)C)C(=O)N[C@@H](Cc1ccc(O)cc1)C(N)=O [Compound 1 trihydrochloride, His-His-Ile-Tyr-Leu-Gly-Ala-Val-Asn-Tyr-Ile-Tyr-NHz] (H-HHIYLGAVNYIY-NH2)
Most potent concentration (FIG. 3) ([3]; 10 mg/mL in 1% PS-20, 3% PG, pH 4): 3 µM | Dose potency and efficacy versus Met-12 or Compound 1 in DMSO (FIG. 2) ([3]; 10 mg/mL in 2% Polysorbate 20 and 2% PG at pH 4): both considerably more dose potent, but also more efficacious | Course of activity with concentration (FIG. 3) ([3]; 10 mg/mL in 3% PS-20, 3% PG, pH 4, top dose 30): continued increase in activity | Potency relative to Met-12 by 1C50 ([3]; 661W cells, both in DMSO): 10 fold | Potency relative to Met-12 by concentration of maximal inhibition ([3]; 661W cells, both in DMSO): approximately 3 fold | Dose potency versus Met-12 (FIG. 2) ([3]; DMSO (20 mg/mL)): somewhat more dose potent than Met-12 | Activity above 30 μM ([3]; trihydrochloride in DMSO, U-shaped curve): almost inactive | Concentration of maximal inhibition of FasL-induced caspase 8 activation ([3]; trihydrochloride in DMSO): 3 µM | EC50 [3]: 400 nM | Cells positive for TUNEL in detached retina ([2]; 0.5 μg in DMSO): 0.58% | Cells positive for TUNEL in detached retina ([2]; 1 μg in DMSO): 1.14% | Cells positive for TUNEL in detached retina [2, 4]: 0.82% | Cells positive for TUNEL in detached retina ([2]; 10 μg in DMSO): 0.9% | Apoptotic cells in detached retina ([2]; Example 11, 1 μg in 2% propylene glycol, 2% poloxamer 407, pH 4): 0.4% | Apoptotic cells in detached retina ([2]; Example 11, 1 μg in 3% propylene glycol, 3% PS-20, pH 4.0): 0.01% | Apoptotic cells in detached retina ([2]; Example 11, 5 μg in 2% propylene glycol, 2% poloxamer 407, pH 4): 0.3% | Apoptotic cells in detached retina ([2]; Example 11, 5 μg in 3% propylene glycol, 3% PS-20, pH 4.0): 2.9% | Apoptotic cells in detached retina ([2]; Example 11, 5 μg in DMSO): 2.5% | Apoptotic cells in detached retina ([2]; Example 12, 1 μg in DMSO): 2.4%

CC[C@H](C)[C@H](NC(=O)[C@H](Cc1ccc(O)cc1)NC(=O)[C@H](CC(N)=O)NC(=O)[C@@H](NC(=O)[C@H](C)NC(=O)CNC(=O)[C@H](CC(C)C)NC(=O)[C@H](Cc1ccc(O)cc1)NC(=O)[C@@H](NC(=O)[C@H](Cc1c[nH]cn1)NC(=O)[C@@H](N)Cc1c[nH]cn1)[C@@H](C)CC)C(C)C)C(=O)N[C@@H](Cc1ccc(O)cc1)C(=O)O [Met-12, HHIYLGAVNYIY, reference compound] (H-HHIYLGAVNYIY-OH; N-terminus assumed)
Aqueous solubility (in words) [1]: extremely poor aqueous solubility | pH of onset of gelling ([1]; 70% Propylene glycol): 3.2 pH | pH to which a clear mobile solution persists ([1]; aqueous solution titrated with sodium hydroxide): 3.0 pH | Loss in activity of a non-solution formulation ([3]; 10 mg/mL in 20 mM citrate buffer pH 2.8, in vitro and in vivo assays): at least a fivefold loss in activity | Caspase 8 activation remaining relative to baseline ([3]; Met-12 trihydrochloride at 10 μM, depending on the assay): 0-25% | Dose at which maximum inhibition is achieved ([3]; aqueous based formulations): 50 to 100 µM | Concentration of maximal inhibition of FasL-induced caspase 8 activation ([3]; trihydrochloride in DMSO): 10 µM | EC50 [3]: 4000 nM | Cells positive for TUNEL in detached retina [2, 4]: over 1%
